Source: publication PMC13108699, “Mass balance and metabolite profiling of ^14C-Zalunfiban in humans following single-dose subcutaneous administration” (Xenobiotica; the fate of foreign compounds in biological …, 2025)
“And” between values parts separate entries of the source, which are not always exact repeats. Identical values can stand only once.

Assays:
Lipophilicity = type: physicochemical
Water solubility = type: physicochemical
platelet aggregation = assay: In vitro inhibition of ADP-induced platelet aggregation in platelet-rich plasma; type: cell-based, human
Description: Ten mL of whole blood was collected from healthy human donors via venipuncture and treated with an anticoagulant (D-phenylalanyl-prolyl-arginyl chloromethyl ketone). From this, platelet-rich plasma (PRP) was prepared by centrifuging whole blood at room temperature at 650 × g for 4 min. PRP was removed and standardised to a uniform platelet concentration of 3.0 × 10^5/μL, using platelet poor plasma as a diluent, where necessary. […] Platelet aggregation was measured using an aggregometer (PAP-8E C/N 106075; Bio/Data Corp, Horsham PA). For M1 a range of concentrations was tested to produce a single fitted curve, and the Levenberg-Marquardt approach was used to calculate IC50 values.

[1] = Metabolite profiling of pooled whole blood, urine and faeces by LC radiochromatograms with AMS; type: in vivo, human
Description: For metabolite profiling in whole blood, urine, and faeces, LC-MS/MS followed by AMS was used. The HPLC system included a 1290 Infinity Sampler, Binary Pump, and thermostat (Agilent, UK). The chromatographic method used an aqueous formic acid (MPA)/ammonium acetate:acetonitrile:methanol (MPB) gradient and a Scherzo SS-C18 HPLC column at a temperature of 40 °C with injection volumes of 50–200 microliters. The gradient was set at 90% MAP and 10% MPB. The mass spectrometer was a Q-Exactive system (Thermo Fisher Scientific, UK) and the AMS a single stage NEC SSAMS-250.
Single whole blood, faeces, and urine pools were created across subjects and radioactive regions representing 10% or more of the circulating radioactivity were analysed (e.g. 10% or more of the circulating radioactivity in whole blood or accounting for 10% or more of the administered radioactivity/dose in urine and faeces), To create the pool, an individual subject AUC pool was prepared, and a constant proportion of each subject pool was taken to create one cross-subject pool. The whole blood sample pool included samples from hours 0–144, the urine sample pool included samples from hours 0–48, and the faeces pool from hours 0–192.
Whole blood, faeces, and urine radiochromatograms were generated for each sample by collecting HPLC fractions at intervals of 2 (30 s) or 4 (15 s) per minute over the run time of 110 min.
Radiochromatograms were generated from AMS data using the LAURA V6 software (LabLogic, Sheffield, UK). Regions of interest were quantified and provisionally identified where possible by assignment of observed peaks in each radiochromatogram to either parent zalunfiban or M1 by retention time matching, with corresponding ^12C-reference standards obtained via LC-UV.
Assignment of parent and metabolites was made by matching retention times with synthesised standards at wavelengths of 210, 230, 254, 270, and 300 nm, using liquid chromatography ultraviolet chromatography (LC-UV).
For extraction of ^14C-zalunfiban from whole blood, weighed aliquots in microcentrifuge tubes were processed with vortex mixing and centrifugation. The supernatant was then harvested and the process repeated with the bullet material in the original tube using acetonitrile and then methanol. The combined aliquots then underwent AMS analysis to determine the extraction recovery. Once optimised, the final combined supernatant was dried under N2 gas at 40 °C and reconstituted with 1 mL methanol:water (20:80, v/v), with vortex mixing and sonication. This was followed by analysis by LC. The radioactivity extraction recovery for whole blood (AUC0–144h) was 54.5%,
For extraction of ^14C-zalunfiban from homogenised faeces, weighed aliquots in microcentrifuge tubes were processed with vortex mixing and centrifugation, and then diluted with acetonitrile, followed by additional mixing, centrifugation, and repeat extraction with methanol:water until optimised. Once optimised, the final combined supernatant was dried under N2 gas at 40 °C and reconstituted with methanol, followed by water, followed by vortex mixing, followed by analysis by LC. The radioactivity extraction recovery for faeces (0–192 h) was 100%.
Urine was not subjected to extraction. An aliquot was dispensed into an LC vial prior to analysis.

## Nc1cncc(-c2nn3c(=O)cc(N4CCNCC4)nc3s2)c1 [M1, des-gly-zalunfiban]
Lipophilicity
  Lipophilicity compared with zalunfiban: more lipophilic than zalunfiban
Water solubility
  solubility: < 0.01 µg/mL
Platelet aggregation; Homo sapiens, Platelet, 20 min, PRP, 20 min at 22°C, ADP-initiated aggregation
  IC50: 25.5 ± 3.5 µM
Platelet aggregation; from IC50 values
  Antiplatelet activity relative to zalunfiban: < 1%
[1]; 0–48 h
  Percentage of dose excreted in urine: 52.98% and 53.0%
[1]; 0–48 h cross-participant pooled sample
  Percentage of total radioactivity in urine: 64.1%
[1]; 0–192 h
  Percentage of dose excreted in faeces: 2.87%
[1]; 0–192 h pooled sample
  Percentage of total radioactivity in faeces: 20.8%
[1]; AUC0–144 cross-pooled whole blood extract
  Percentage of total circulating radioactivity in whole blood: 24.4%
[1]; male, human, in vivo
  Radiochromatogram peak, faeces extract: 20.83 %ROI
